# Measurements from patent publication US20250032476A1, “ALPHA-2A ADRENERGIC RECEPTOR MODULATORS AND USES THEREOF” (The Regents of the University of California, priority 2021, published 2025).
# “And” between values parts separate entries of the source, which are not always exact repeats. Equal entries are not always repeated. “Also recorded” adds a separate entry of the source. Structures can show the parent of a compound that is named as a salt. Where two headings read alike, the source gives them in different places.
# Columns and labels:
# α2AAR-Y431^7.43A/F = α2AAR-Y431^7.43A/F (Homo sapiens, UniProt P08913, Y431A); assay: Gi activation (BRET) at α2AAR Y431^7.43 mutants; type: cell-based
# Experimental: Investigating the sensitivity of selected ligands to the receptor mutants α2AAR-D128^3.32A, α2AAR-D128^3.32T, α2AAR-D128^3.32L, α2AAR-S215^5.42A, α2AAR-Y409^6.55A, α2AAR-Y409^6.55T, α2AAR-Y409^6.55F, α2AAR-F427^7.39F, α2AAR-Y431^7.43A, and α2AAR-Y431^7.43F was determined by monitored G protein stimulation as described above transfecting the appropriate receptor together with Gαi1-RLucII and Gβ1/Gγ1-GFP10. […] Three to ten experiments were done in duplicate.
# The sensitivity of selected ligands to the receptor mutants α2AAR-D128^3.32A, α2AAR-D128^3.32T, α2AAR-D128^3.32L, α2AAR-S215^5.42A, α2AAR-Y409^6.55A, α2AAR-Y409^6.55T, α2AAR-Y409^6.55F, α2AAR-F427^7.39F, α2AAR-Y431^7.43A, and α2AAR-Y431^7.43F was monitored by G protein activation as described above transfecting the appropriate receptor together with Gαi1-RLucII and Gβ1/Gγ2-GFP10. […] Similarly, the effect of the α2AAR-D128^3.32A, α2AAR-S215^5.42A, α2AAR-Y409^6.55A, α2AAR-Y409^6.55F, α2AAR-F427^7.39F, α2AAR-Y431^7.43A, and α2AAR-Y431^7.43F mutations on arrestin recruitment was evaluated as described above transfecting the appropriate receptor together with CAAX-rGFP, GRK2 and β-arrestin-2-RLucII. Data was analyzed as ligand induced changes in BRET compared to vehicle (deltaBRET). Three to seven experiments were done in duplicate.
# [1] = Pharmacokinetics in mice (plasma, brain, CSF); type: in vivo
# Experimental: Pharmacokinetics. Pharmacokinetic experiments were performed by Bienta (Enamine Biology Services) in accordance with Enamine pharmacokinetic study protocols and Institutional Animal Care and Use Guidelines (protocol number 1-2/2020). […] In each compound study, nine time points (5, 15, 30, 60, 120, 240, 360, 480 and 1440 min) were collected, each of the time point treatment group included 3 animals. There was also a control group of one animal. In the ‘9087, ‘7075, ‘4622 studies, male C57BL/6N mice were used, for PS75 CD-1 mice, and for ‘2998 male Balb/cAnN mice. For all compound studies the animals were randomly assigned to the treatment groups before the pharmacokinetic study; all animals were fasted for 4 h before dosing. For injections, ‘9087 was dissolved in Captisol—water (40%:60%, w/v), ‘4622 was dissolved in a 20% Kolliphor HS—physiological saline solution, and ‘7075, PS75, and ‘2998 were dissolved in a 20% 2-HPBCD—aqueous solution. The batches of working formulations were prepared 10 minutes prior to the in vivo study.
# (§1) Mice were injected i.p. with 2,2,2-tribromoethanol at 150 mg/kg prior to drawing CSF and blood. CSF was collected under a stereomicroscope from cisterna magna using 1 mL syringes. Blood collection was performed from the orbital sinus in microtainers containing K3EDTA. Animals were sacrificed by cervical dislocation after the blood samples collection. Blood samples were centrifuged 10 min at 3000 rpm. Brain samples (right lobe) were weighed and transferred into 1.5 ml tubes. All samples were immediately processed, flash-frozen and stored at −70° C. until subsequent analysis.
# Plasma samples (40 μL) were mixed with 200 μL of internal standard (IS) solution. After mixing by pipetting and centrifuging for 4 min at 6000 rpm, 4 μL of each supernatant was injected into the LC-MS/MS system. Solutions of internal standards were used to quantify compounds in the plasma samples. […] After this, the samples were centrifuged for 4 min at 14,000 rpm, and supernatant was injected into LC-MS/MS system. CSF samples (2 μL) were mixed with 40 μL of an internal stock solution. After mixing by pipetting and centrifuging for 4 min at 6,000 rpm, 5 μL of each supernatant was injected into LC-MS/MS system.
# (§2) Analyses of plasma, brain and CSF samples were conducted at Enamine/Bienta. The concentrations of compounds in plasma and brain samples were determined using high performance liquid chromatography/tandem mass spectrometry (HPLC-MS/MS). Data acquisition and system control was performed using Analyst 1.5.2 software (AB Sciex, Canada). […] Pharmacokinetic data analysis was performed using noncompartmental, bolus injection or extravascular input analysis models in WinNonlin 5.2 (PharSight).
# as §1, with “mL” for “ml”
# as §2
# Additional pharmacokinetic experiments were performed by Sai Life Sciences (Hyderabad, India) in accordance with the Sai Study Protocol SAIDMPK/PK-22-04-0340. […] Testing was done in C57BL/6 mice.
# mice [2] = assay: Rotarod motor test (motor impairment and sedation); type: in vivo
# [3] = Body weight measurement over 48 hours; type: in vivo, mice; conditions: ‘9087 5, 10 or 20 mg/kg; dexmedetomidine 30 μg/kg
# human α2AAR [4] = target: T1, human α2AAR (Homo sapiens (Human), UniProt P08913); assay: Radioligand competition binding to human α2AAR (HEK293T membranes, [3H]RX82,1002); conditions: for Ki: human α2AAR
# [5] = tested on: imidazoline-2 receptor (I2R); assay: I2R binding (Eurofins Cerep); conditions: tested at 500 nM
# SNI mice = assay: Spared-nerve injury (SNI) model of neuropathic pain, von Frey mechanical thresholds; type: in vivo; conditions: for Effect of atipamezole on the agonist's effect in SNI mice: atipamezole 2 mg/kg, 15 minutes prior
# Experimental: Spared-nerve injury (SNI) model of neuropathic pain. Under isoflurane anesthesia, two of the three branches of the sciatic nerve were ligated and transected distally, leaving the sural nerve intact. Behavior was tested 7 to 14 days after injury and in situ hybridization was performed one week post-injury.
# CFA mice = assay: Complete Freund's Adjuvant (CFA) inflammatory pain model, Hargreaves test; conditions: mouse, in vivo
# Experimental: The CFA model of chronic inflammation was induced as described previously (96). Briefly, CFA (Sigma) was diluted 1:1 with saline and vortexed for 30 minutes. When fully suspended, we injected 20 μL of CFA into one hindpaw. Heat thresholds were measured before the injection (baseline) and 3 days after using the Hargreaves test.
# The CFA model of chronic inflammation was induced as described previously (100). Briefly, CFA (Sigma) was diluted 1:1 with saline and vortexed for 30 minutes. When fully suspended, we injected 20 μL of CFA into one hindpaw. Heat thresholds were measured before the injection (baseline) and 3 days after using the Hargreaves test.
# [6] = target: T2, ALPHA-2A ADRENERGIC RECEPTOR (Homo sapiens (Human), UniProt P08913); assay: Gi recruitment (G protein); type: cell-based; conditions: Gi recruitment
# [7] = target: T2, ALPHA-2A ADRENERGIC RECEPTOR; assay: Arrestin recruitment; type: cell-based; conditions: Tables 7-9
# human α2AAR [8] = target: T1, human α2AAR; assay: Gαi G protein activation, BRET biosensor assay in HEK293T cells; conditions: for Emax: HEK-293T
# human α2AAR [9] = target: T1, human α2AAR; assay: β-arrestin-2 recruitment, BRET biosensor assay in HEK293T cells
# Experimental: Bioluminescense resonance energy transfer. G protein mediated activation of human α2AAR and D2long was monitored with Gαi1-RLucII (71, 72) together with Gβ1 and Gγ1-GFP10. Arrestin recruitment was performed by enhanced bystander BRET using CAAX-rGFP and β-arrestin-2-RLucII as biosensors (all biosensors are provided from M. Bouvier, Université de Montréal, Canada) (71, 73) in the presence of GRK2 as described (66, 74). In brief, HEK293T cells were transfected with a total amount of 3.3 μg DNA per 10^6 cells using linear polyethyleneimine (PEI, Polysciences, 3:1 PEI:DNA ratio) and transferred into 96-well half-area plates (Greiner, Frickenhausen, Germany) at a density of 10,000 cells per well and incubated for 48 hrs. Medium was exchanged with PBS (Hank's balanced salt solution) and cells were stimulated with ligands at 37° C. for 10 min for Gαi stimulation or arrestin recruitment, respectively.
# human α2BAR = human α2BAR (Homo sapiens (Human), UniProt P18089); assay: Radioligand competition binding to human α2BAR; conditions: saturation binding
# murine α2AAR = murine α2AAR (Mus musculus (Mouse), UniProt Q01338); assay: Radioligand competition binding to murine α2AAR; conditions: saturation binding
# α2CAR = α2CAR (Homo sapiens (Human), UniProt P18825); assay: Radioligand binding to α2C adrenergic receptor; conditions: saturation binding
# mice [10] = assay: Constipation assay (fecal pellets over 6 hours); conditions: i.p.; morphine 10 mg/kg, dexmedetomidine 30 μg/kg, ‘9087 5 mg/kg; versus vehicle
# [11] = Metabolic stability in male rat liver microsomes; type: in vitro ADME; conditions: 1 hour
# Experimental: Metabolic stability studies. Metabolic stability of the test compounds was assessed using male pooled rat liver microsomes (Sprague Dawley, Sigma Aldrich) as previously described (93, 94). The reactions were carried out in 2 mL polyethylene tubes on a rotator carousel (Stuart™ SB3) in an incubator at 37° C. […] Transformation reactions were initiated by the addition of 50 μL of cofactor solution (NADPH, Carl Roth, final concentration 1 mM). […] Precipitated protein was removed by centrifugation (1 min, 16,000 rcf) and the supernatants were analysed by HPLC/MS on a Thermo Scientific Dionex Ultimate 3000 HPLC system equipped with a Zorbax Eclipse XDB-C8 column (4.6×150 mm, 5 μm), a DAD detector (210 nm, 230 nm, 254 nm, 310 nm), and a BRUKER amaZon SL mass spectrometer with ESI source. The following binary eluent system (methanol in water+0.1% (v/v) formic acid) was employed: 10% for 1 min, 10% to 100% in 20 min, 100% for 5 min, 100% to 10% in 2 min, 10% for 2 min, flow 0.4 mL/min. […] Control experiments were conducted in the absence of cofactor solution to determine non-specific binding to matrix. The integral (AUC) of the extracted ion chromatograms (EIC) was used to analyze the concentration of the remaining substrates. […]
# mice [12] = assay: Tail flick (50° C.) acute thermal pain assay; type: in vivo
# naïve mice = assay: Mechanical thresholds (von Frey) in naïve (uninjured) mice; conditions: mouse, in vivo
# human α2AAR [13] = target: T1, human α2AAR; assay: α2AAR internalization assay with rGFP-CAAX and rGFP-FYVE biosensors; type: cell-based; conditions: α2AAR-RlucII/rGFP-CAAX biosensor
# Experimental: Human α2AAR internalization was evaluated by measuring the disappearance of hα2AAR-RlucII from the plasma membrane labeled with rGFP-CAAX and its relocalization in endosome labeled with rGFP-FYVE (39).
# For concentration-response curves, BRET signal was measured after 30 min incubation. Plates were read on a Spark microplate reader (Tecan; Mannedorf, Switzerland) using the BRET2 manufacturer settings.
# analgesia in vivo = conditions: result in words, Table 6
# [14] = mean ± s.e.m., read-out: Ki for α2AAR
# [15] = mouse, brain, ip, I.P. 10 mg/kg, read-out: T ½ Brain (converted)
# [16] = mouse, plasma, ip, I.P. 10 mg/kg
# [17] = mouse, plasma, ip, I.P. 10 mg/kg, read-out: T ½ Plasma (converted)
# [18] = Gαi EC50, BRET biosensor, HEK293T, human α2AAR
# [19] = C57BL/6N ('9087), C57BL/6 (PS75), mouse, plasma, iv, I.V. 10 mg/kg
# [20] = C57BL/6N ('9087), C57BL/6 (PS75), mouse, plasma, po, P.O. 30 mg/kg
# T1 sequence (P08913 whole entry): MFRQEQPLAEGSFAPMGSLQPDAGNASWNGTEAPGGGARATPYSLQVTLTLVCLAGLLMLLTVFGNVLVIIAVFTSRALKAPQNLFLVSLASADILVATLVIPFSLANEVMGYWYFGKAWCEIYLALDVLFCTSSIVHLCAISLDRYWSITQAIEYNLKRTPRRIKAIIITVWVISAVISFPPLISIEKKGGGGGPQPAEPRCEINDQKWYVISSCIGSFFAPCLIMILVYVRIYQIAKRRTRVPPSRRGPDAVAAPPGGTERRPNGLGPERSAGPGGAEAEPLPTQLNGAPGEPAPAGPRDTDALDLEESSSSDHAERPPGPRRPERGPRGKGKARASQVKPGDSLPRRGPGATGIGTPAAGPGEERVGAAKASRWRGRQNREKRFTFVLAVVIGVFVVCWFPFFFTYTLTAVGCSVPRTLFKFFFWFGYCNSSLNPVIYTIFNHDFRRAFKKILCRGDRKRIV
# T2 sequence (P08913 whole entry): as above
# Sequence of α2CAR (P18825 whole entry): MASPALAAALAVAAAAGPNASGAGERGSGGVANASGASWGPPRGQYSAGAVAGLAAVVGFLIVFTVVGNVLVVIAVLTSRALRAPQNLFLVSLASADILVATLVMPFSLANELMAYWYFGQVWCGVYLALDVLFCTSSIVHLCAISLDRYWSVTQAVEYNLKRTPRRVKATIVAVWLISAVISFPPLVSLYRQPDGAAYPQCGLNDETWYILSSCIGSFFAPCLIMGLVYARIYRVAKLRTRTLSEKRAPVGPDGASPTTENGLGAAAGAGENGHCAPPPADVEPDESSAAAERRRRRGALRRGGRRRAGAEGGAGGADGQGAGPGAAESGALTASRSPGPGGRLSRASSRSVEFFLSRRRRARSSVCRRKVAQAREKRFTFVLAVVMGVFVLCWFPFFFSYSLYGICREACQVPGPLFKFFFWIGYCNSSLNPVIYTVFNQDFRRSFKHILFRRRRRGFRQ
# Sequence of human α2BAR (P18089 whole entry): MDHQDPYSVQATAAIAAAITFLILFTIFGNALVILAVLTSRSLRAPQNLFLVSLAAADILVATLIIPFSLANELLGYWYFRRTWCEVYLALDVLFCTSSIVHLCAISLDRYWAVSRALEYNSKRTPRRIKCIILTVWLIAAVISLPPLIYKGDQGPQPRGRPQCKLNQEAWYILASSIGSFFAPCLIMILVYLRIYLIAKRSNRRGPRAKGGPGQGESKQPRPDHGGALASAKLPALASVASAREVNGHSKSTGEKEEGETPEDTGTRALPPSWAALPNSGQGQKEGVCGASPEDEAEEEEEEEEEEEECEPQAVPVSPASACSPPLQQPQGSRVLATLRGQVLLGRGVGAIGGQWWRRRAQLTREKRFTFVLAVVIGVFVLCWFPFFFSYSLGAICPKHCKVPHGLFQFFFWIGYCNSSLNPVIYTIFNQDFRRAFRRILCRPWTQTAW
# Sequence of murine α2AAR (Q01338 whole entry): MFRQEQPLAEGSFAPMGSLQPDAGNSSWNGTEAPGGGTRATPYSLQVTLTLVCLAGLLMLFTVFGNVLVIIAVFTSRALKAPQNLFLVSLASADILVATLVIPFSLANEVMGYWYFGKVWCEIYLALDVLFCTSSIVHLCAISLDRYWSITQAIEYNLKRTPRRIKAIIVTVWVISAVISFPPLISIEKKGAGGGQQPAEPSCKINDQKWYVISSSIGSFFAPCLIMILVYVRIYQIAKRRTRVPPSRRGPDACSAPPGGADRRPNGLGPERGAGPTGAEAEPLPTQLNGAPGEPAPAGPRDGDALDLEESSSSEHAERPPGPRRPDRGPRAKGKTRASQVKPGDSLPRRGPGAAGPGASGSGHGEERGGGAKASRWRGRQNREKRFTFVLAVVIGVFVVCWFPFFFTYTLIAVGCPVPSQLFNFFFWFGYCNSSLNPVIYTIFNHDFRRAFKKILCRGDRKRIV
smiles,measurement,setting,value
Cc1cccc([C@H](C)c2cnc[nH]2)c1C [dexmedetomidine],Gi signaling at Y431^7.43A,α2AAR-Y431^7.43A/F,essentially eliminated
same,AUC Brain,[1]; I.P. 30 μg/kg,285 ng·min/mL
same,Cmax Brain,[1]; I.P. 30 μg/kg,8 ng/mL
same,Sedation in rotarod test,mice [2]; 60 μg/kg,completely sedating; also recorded: complete sedation
same,Effect on body weight over 48 hours,[3],no effect on body weight
"Cc1cc2[nH]ncc2cc1-c1ccc(N)nc1 [Compound 2998, 5-(6-Methyl-1H-indazol-5-yl)pyridin-2-amine]",Ki,human α2AAR [4]; [14],180 ± 34 nM
same,"I2R binding, single point radioligand experiment",[5],no binding was seen
same,AUC Brain,[1]; I.P. 10 mg/kg,51700 ng·min/mL
same,Cmax Brain,[1]; I.P. 10 mg/kg,742 ng/mL
same,half-life,[1]; [15],27.6 min
same,AUC,[1]; [16],3070 ng·h/mL
same,Cmax,[1]; [16],2710 ng/mL
same,half-life,[1]; [17],24 min
same,Effect of atipamezole on the agonist's effect in SNI mice,SNI mice,not significant reversal; also recorded: partially reversed
same,Mechanical thresholds / anti-allodynic effect in SNI mice,SNI mice; systemic injection,exhibited anti-allodynic effects
same,Thermal latencies / anti-hyperalgesic effect in CFA model,CFA mice,did not
same,EC50,"[6]; Tables 7-9, read-out: G protein EC50",89 nM
same,Emax,"[6]; Tables 7-9, read-out: G protein Emax (%)",60%
same,Emax,[7],< 10%
same,EC50,human α2AAR [8]; [18],73 ± 14 nM
same,Emax,human α2AAR [8]; read-out: Gαi Emax,61 ± 3%
same,EC50,human α2AAR [9],98 ± 32 nM
same,Emax,"human α2AAR [9]; HEK-293T, read-out: β-arrestin-2 Emax",8 ± 3%
"COC1(C2=NCCN2)COc2ccccc2O1 (centres unmarked) [[^3H]RX82,1002]",Kd,human α2AAR [4]; saturation binding,0.54 ± 0.024 nM
same,Kd,human α2BAR,2.3 ± 0.52 nM
same,Kd,murine α2AAR,1.8 ± 0.61 nM
same,Kd,α2CAR,0.58 ± 0.11 nM
CN1CC[C@]23c4c5ccc(O)c4O[C@H]2[C@@H](O)C=C[C@H]3[C@H]1C5 [morphine],Constipation,mice [10],induced constipation
"Clc1ccc2cccc(Nc3ccncc3)c2c1 [PS75, N-(7-Chloronaphthalen-1-yl)pyridin-4-amine x TFA]",Ki,"human α2AAR [4]; mean ± SEM (Table 3), read-out: Ki",8.2 ± 0.48 nM
same,Ki,human α2AAR [4]; [14],8.2 ± 0.48 nM
same,AUC,[1]; [19],3460 ng·h/mL
same,Cmax,[1]; [19],2590 ng/mL
same,half-life,"[1]; C57BL/6N ('9087), C57BL/6 (PS75), mouse, plasma, iv, I.V. 10 mg/kg, read-out: T ½ Plasma (converted)",98.4 min
same,bioavailability,"[1]; C57BL/6N ('9087), C57BL/6 (PS75), mouse, plasma, oral, from I.V. 10 mg/kg and P.O. 30 mg/kg dosing",102%
same,AUC,[1]; [20],10600 ng·h/mL
same,Cmax,[1]; [20],2390 ng/mL
same,half-life,"[1]; C57BL/6N ('9087), C57BL/6 (PS75), mouse, plasma, po, P.O. 30 mg/kg, read-out: T ½ Plasma (converted)",190 min
same,half-life,"[1]; C57BL/6N ('9087, '7075, '4622), CD-1 (PS75), mouse, CSF, ip, I.P. 10 mg/kg, read-out: T ½ CSF (converted)",153 min
same,AUC Brain,[1]; I.P. 10 mg/kg,888000 ng·min/mL
same,AUC CSF,[1]; I.P. 10 mg/kg,7790 ng·min/mL
same,Cmax Brain,[1]; I.P. 10 mg/kg,9200 ng/mL
same,Cmax CSF,[1]; I.P. 10 mg/kg,99.3 ng/mL
same,half-life,[1]; [15],64.2 min
same,AUC,[1]; [16],927 ng·h/mL
same,Cmax,[1]; [16],679 ng/mL
same,half-life,[1]; [17],43.8 min
same,"Metabolic stability, compound remaining",[11],remain largely unmodified after 1 hour
same,Effect of atipamezole on the agonist's effect in SNI mice,SNI mice; TFA,not significant reversal; also recorded: partially reversed
same,Mechanical thresholds / anti-allodynic effect in SNI mice,SNI mice; systemic injection,exhibited anti-allodynic effects
same,Reversal of mechanical hypersensitivity in SNI mice,SNI mice; systemic injection,completely reversed the mechanical hypersensitivity
same,"Withdrawal latencies, tail flick",mice [12],increased withdrawal latencies
same,Performance in rotarod test,mice [2]; doses up to 20 mg/kg,did not have an effect
same,Mechanical thresholds of naïve (uninjured) mice,naïve mice,did increase the mechanical thresholds
same,Disappearance of α2AAR from the plasma membrane (internalization),human α2AAR [13],no effect
same,functional classification (agonist / weak agonist),"[6]; Table 6, result in words",agonist
same,EC50,"[6]; Table 6, read-out: EC50",4.8 nM
same,Emax,"[6]; Table 6, read-out: Emax (%)",79%
same,analgesic in vivo,analgesia in vivo,analgesic in vivo
same,EC50,"human α2AAR [8]; Gi EC50 ± SE, BRET biosensor, human α2AAR (Table 3)",4.8 nM
same,EC50,human α2AAR [8]; [18],4.8 nM
same,Emax,human α2AAR [8]; read-out: Gi Emax ± SEM,82%
same,Emax,human α2AAR [8]; read-out: Gαi Emax,82%
same,Fold increased Gi potency compared to ‘9087,human α2AAR [8]; TFA,13 fold and 11 fold
same,Emax,"human α2AAR [9]; HEK-293T, read-out: β-Arr-2 Emax @ 0.1 mM",15%
same,Emax at 100 µM,"human α2AAR [9]; HEK-293T, read-out: β-arrestin-2 Emax @ 0.1 mM",15 ± 3%
